Here are results for 37 compounds from patent publication US8338565B2, “Macrocyclic compounds for inhibition of tumor necrosis factor alpha” (Ensemble Therapeutics Corporation, priority 2008, dated 2012).

Numbered stars: 1 amine (or outer) side, 2 acyl side, 3 side chain; on linkers, the order of the positions; unused ones are H or OH. Bridge positions count the residues as written; N and C are the ends. Square brackets hold non-standard residues; d marks the D form. Peptide text beside a SMILES is read from it. * marks the point of attachment. Bip = N[C@@H](Cc1ccc(-c2ccccc2)cc1)C(=O)O; dBip = N[C@H](Cc1ccc(-c2ccccc2)cc1)C(=O)O; dPhe(4-NH2) = Nc1ccc(C[C@@H](N)C(=O)O)cc1; Phe(4-NH2) = Nc1ccc(C[C@H](N)C(=O)O)cc1; d(hPhe) = N[C@H](CCc1ccccc1)C(=O)O; 2Thi = N[C@@H](Cc1cccs1)C(=O)O; d2Thi = N[C@H](Cc1cccs1)C(=O)O; Suc = O=C(CCC(=O)[*:2])[*:1]; Nphe = O=C(O)CNCc1ccccc1; Boc = CC(C)(C)OC(=O)*; GABA = NCCCC(=O)O

T1 sequence (P01375 77-233 limits assumed, species assumed): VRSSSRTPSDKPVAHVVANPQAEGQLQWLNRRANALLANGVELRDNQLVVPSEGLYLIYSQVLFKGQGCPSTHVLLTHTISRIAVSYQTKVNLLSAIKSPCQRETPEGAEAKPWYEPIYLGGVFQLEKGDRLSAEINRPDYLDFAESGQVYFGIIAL

The assay has as its target T1, TNFα / TNFα receptor (TNFα R1/Fc) (Homo sapiens, UniProt P01375).
T1 construct: purchased R&D Systems
The assay is described as follows: Inhibition of binding of TNFα to the TNFα receptor (plate ELISA competition). The settings on record: Table 2; read-out: Activity (IC50, inhibition of TNFα binding to TNFα R1/Fc). The procedure, abridged: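 Plates were coated with TNFα at 15 nM. Test compound and 8.33 nM receptor-Fc (PBST, 2% DMSO) were first mixed in solution for 30 min at room temperature, then transferred to the plates for another 30 min. Competition was read by absorbance at 450 nm after HRP anti-human IgG Fc detection with TMB.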
In general terms: In an ELISA, binding on a coated surface is turned into a signal by an enzyme label.
As for `O=C1CCC(=O)N[C@H](Cc2cccs2)C(=O)N[C@@H](Cc2ccc(-c3ccccc3)cc2)C(=O)N[C@@H](Cc2ccccc2)C(=O)N[C@@H](C(=O)O)Cc2ccc(cc2)N1` [Compound 497] ([d2Thi][Bip]F[dPhe(4-NH2)]-OH; linker N-4 via Suc), the IC50 is > 100 µM.
The value for `O=C1CCC(=O)N[C@H](Cc2cccs2)C(=O)N[C@H](Cc2ccc(-c3ccccc3)cc2)C(=O)N[C@H](Cc2ccccc2)C(=O)N[C@@H](C(=O)O)Cc2ccc(cc2)N1` [Compound 498] ([d2Thi][dBip][dF][dPhe(4-NH2)]-OH; linker N-4 via Suc) was > 100 µM; that for `O=C1CCC(=O)N[C@@H](Cc2cccs2)C(=O)N[C@@H](Cc2ccc(-c3ccccc3)cc2)C(=O)N[C@H](Cc2ccccc2)C(=O)N[C@@H](C(=O)O)Cc2ccc(cc2)N1` [Compound 499] ([2Thi][Bip][dF][dPhe(4-NH2)]-OH; linker N-4 via Suc) was > 100 µM; that for `O=C1CCC(=O)N[C@@H](Cc2cccs2)C(=O)N[C@H](Cc2ccc(-c3ccccc3)cc2)C(=O)N[C@H](Cc2ccccc2)C(=O)N[C@@H](C(=O)O)Cc2ccc(cc2)N1` [Compound 501] ([2Thi][dBip][dF][dPhe(4-NH2)]-OH; linker N-4 via Suc) was > 100 µM.
In the case of `O=C1CCC(=O)N[C@@H](Cc2cccs2)C(=O)N[C@@H](Cc2ccc(-c3ccccc3)cc2)C(=O)N[C@@H](Cc2ccccc2)C(=O)N[C@@H](C(=O)O)Cc2ccc(cc2)N1` [Compound 502] ([2Thi][Bip]F[dPhe(4-NH2)]-OH; linker N-4 via Suc), the IC50 was > 100 µM.
Turning to `O=C1CCC(=O)N[C@H](Cc2cccs2)C(=O)N[C@H](Cc2ccc(-c3ccccc3)cc2)C(=O)N[C@@H](Cc2ccccc2)C(=O)N[C@@H](C(=O)O)Cc2ccc(cc2)N1` [Compound 503] ([d2Thi][dBip]F[dPhe(4-NH2)]-OH; linker N-4 via Suc), the IC50 was > 100 µM.
Turning to `O=C(O)CN(Cc1ccccc1)C(=O)[C@@H]1Cc2ccc(cc2)NC(=O)CCC(=O)N[C@H](CCc2ccccc2)C(=O)N[C@@H](Cc2ccc(-c3ccccc3)cc2)C(=O)N[C@H](Cc2ccccc2)C(=O)N1` [Compound 504] ([d(hPhe)][Bip][dF][Phe(4-NH2)][Nphe]-OH; linker N-4 via Suc), the IC50 is < 10 µM.
The value for `Nc1ccc(C[C@H](NC(=O)[C@@H]2Cc3ccc(cc3)NC(=O)CCC(=O)N[C@H](CCc3ccccc3)C(=O)N[C@@H](Cc3ccc(-c4ccccc4)cc3)C(=O)N[C@H](Cc3ccccc3)C(=O)N2)C(=O)O)cc1` [Compound 505] ([d(hPhe)][Bip][dF][Phe(4-NH2)][Phe(4-NH2)]-OH; linker N-4 via Suc) was 10 to 30 µM.
Turning to `O=C1COc2ccc(cc2)C[C@@H](C(=O)O)NC(=O)[C@H](CCc2ccccc2)NC(=O)[C@@H](Cc2ccc(-c3ccccc3)cc2)NC(=O)C(c2ccccc2)N1` (stereo partly shown) [Compound 507], the IC50 fell in the range of 10 to 30 µM.
Under `CC(=O)NCCCC[C@@H]1NC(=O)COc2ccc(cc2)C[C@@H](C(=O)O)NC(=O)[C@H](CCc2ccccc2)NC(=O)[C@@H](Cc2ccc(-c3ccccc3)cc2)NC1=O` [Compound 508] stands < 10 µM; under `O=C1COc2ccc(cc2)C[C@@H](C(=O)O)NC(=O)[C@H](CCc2ccccc2)NC(=O)[C@@H](Cc2ccc(-c3ccccc3)cc2)NC(=O)[C@H](CCCc2ccccc2)N1` [Compound 509], < 10 µM.
With `O=C1COc2ccc(cc2)C[C@@H](C(=O)O)NC(=O)[C@H](CCc2ccccc2)NC(=O)[C@@H](Cc2ccc(-c3ccccc3)cc2)NC(=O)[C@H](Cc2ccc(-c3ccccc3)cc2)N1` [Compound 510], the IC50 is < 10 µM.
On to `O=C1COc2ccc(cc2)C[C@@H](C(=O)O)NC(=O)[C@H](CCc2ccccc2)NC(=O)[C@@H](Cc2ccc(-c3ccccc3)cc2)NC(=O)[C@H](Cc2ccccc2)N1` [Compound 511], for which the IC50 is < 10 µM.
The value for `O=C1COc2ccc(cc2)C[C@@H](C(=O)O)NC(=O)[C@H](CCc2ccccc2)NC(=O)[C@@H](Cc2ccc(-c3ccccc3)cc2)NC(=O)[C@H](Cc2ccc([N+](=O)[O-])cc2)N1` [Compound 512] was < 10 µM; that for `O=C1COc2ccc(cc2)C[C@@H](C(=O)O)NC(=O)[C@H](CCc2ccccc2)NC(=O)[C@@H](Cc2ccc(-c3ccccc3)cc2)NC(=O)[C@H](CCc2ccccc2)N1` [Compound 513] was < 10 µM; that for `CC(C)(C)Oc1ccc(C[C@@H]2NC(=O)COc3ccc(cc3)C[C@@H](C(=O)O)NC(=O)[C@H](CCc3ccccc3)NC(=O)[C@@H](Cc3ccc(-c4ccccc4)cc3)NC2=O)cc1` [Compound 514] was < 10 µM.
`CC(C)(C)c1ccc(C[C@@H]2NC(=O)COc3ccc(cc3)C[C@@H](C(=O)O)NC(=O)[C@H](CCc3ccccc3)NC(=O)[C@@H](Cc3ccc(-c4ccccc4)cc3)NC2=O)cc1` [Compound 515]: the IC50 lay in the range of 10 to 30 µM.
Under `CC(C)(C)OC(=O)NCCCC(=O)N[C@H]1CC(=O)Nc2ccc(cc2)C[C@@H](C(=O)O)NC(=O)[C@@H](Cc2ccccc2)NC(=O)[C@H](Cc2ccc(-c3ccccc3)cc2)NC(=O)[C@@H](Cc2cccs2)NC1=O` [Compound 516] ({Boc-GABA}-D[d2Thi][Bip][dF][Phe(4-NH2)]-OH; lactam 1-5) stands 30 to 100 µM; under `O=C1COc2ccc(cc2)C[C@@H](C(=O)O)NC(=O)[C@@H](CCc2ccccc2)NC(=O)[C@H](Cc2ccc(-c3ccccc3)cc2)NC(=O)C(c2ccc(Br)cc2)N1` (stereo partly shown) [Compound 517], 10 to 30 µM.
As to `O=C1COc2ccc(cc2)C[C@@H](C(=O)O)NC(=O)[C@@H](CCc2ccccc2)NC(=O)[C@H](Cc2ccc(-c3ccccc3)cc2)NC(=O)[C@@H](Cc2ccc(-c3ccncc3)cc2)N1` [Compound 518], the IC50 was < 10 µM.
Under `O=C1COc2ccc(cc2)C[C@@H](C(=O)O)NC(=O)[C@@H](CCc2ccccc2)NC(=O)[C@H](Cc2ccc(-c3ccccc3)cc2)NC(=O)[C@@H](Cc2ccc(F)cc2)N1` [Compound 519] stands 10 to 30 µM; under `O=C1COc2ccc(cc2)C[C@@H](C(=O)O)NC(=O)[C@@H](CCc2ccccc2)NC(=O)[C@H](Cc2ccc(-c3ccccc3)cc2)NC(=O)[C@@H](Cc2cccc(C(F)(F)F)c2)N1` [Compound 520], < 10 µM.
Regarding `O=C1COc2ccc(cc2)C[C@@H](C(=O)O)NC(=O)[C@@H](CCc2ccccc2)NC(=O)[C@H](Cc2ccc(-c3ccccc3)cc2)NC(=O)[C@@H](Cc2ccc(O)cc2)N1` [Compound 521], the IC50 was > 100 µM.
The value for `COc1ccc(C[C@H]2NC(=O)COc3ccc(cc3)C[C@@H](C(=O)O)NC(=O)[C@@H](CCc3ccccc3)NC(=O)[C@H](Cc3ccc(-c4ccccc4)cc3)NC2=O)cc1` [Compound 522] was > 100 µM.
As to `O=C1COc2ccc(cc2)C[C@@H](C(=O)O)NC(=O)[C@@H](CCc2ccccc2)NC(=O)[C@H](Cc2ccc(-c3ccccc3)cc2)NC(=O)[C@@H](Cc2ccncc2)N1` [Compound 523], the IC50 is > 100 µM.
Under `O=C1COc2ccc(cc2)C[C@@H](C(=O)O)NC(=O)[C@@H](CCc2ccccc2)NC(=O)[C@H](Cc2ccc(-c3ccccc3)cc2)NC(=O)[C@@H](Cc2ccc(F)c(F)c2)N1` [Compound 524] stands 10 to 30 µM; under `O=C1COc2ccc(cc2)C[C@@H](C(=O)O)NC(=O)[C@@H](CCc2ccccc2)NC(=O)C(c2ccc(Br)cc2)NC(=O)[C@@H](Cc2cccs2)N1` (stereo partly shown) [Compound 525], < 10 µM.
Under `O=C1COc2ccc(cc2)C[C@@H](C(=O)O)NC(=O)[C@@H](CCc2ccccc2)NC(=O)[C@H](Cc2ccc(-c3ccc(C(=O)OCc4ccccc4)cc3)cc2)NC(=O)[C@@H](Cc2cccs2)N1` [Compound 526] stands > 100 µM; under `O=C1COc2ccc(cc2)C[C@@H](C(=O)O)NC(=O)[C@@H](CCc2ccccc2)NC(=O)[C@H](Cc2ccc(F)cc2)NC(=O)[C@@H](Cc2cccs2)N1` [Compound 527], > 100 µM.
Regarding `CC(=O)Nc1ccc(C[C@H](NC(=O)[C@@H]2Cc3ccc(cc3)NC(=O)CCC(=O)N[C@H](CCc3ccccc3)C(=O)N[C@@H](Cc3ccc(-c4ccccc4)cc3)C(=O)N[C@H](Cc3ccccc3)C(=O)N2)C(=O)O)cc1` [Compound 528] ([d(hPhe)][Bip][dF][Phe(4-NH2)][Phe(4-NH2)](Ac)-OH; linker N-4 via Suc), the IC50 is < 10 µM.
`NCCCC(=O)N[C@H]1CC(=O)Nc2ccc(cc2)C[C@@H](C(=O)N[C@@H](Cc2ccccc2)C(=O)O)NC(=O)[C@@H](Cc2ccccc2)NC(=O)[C@H](Cc2ccc(-c3ccccc3)cc2)NC(=O)[C@@H](Cc2cccs2)NC1=O` [Compound 529] (H-[GABA]D[d2Thi][Bip][dF][Phe(4-NH2)]F-OH; lactam 2-6): the IC50 is > 100 µM.
For `O=C1COc2ccc(cc2)C[C@@H](C(=O)O)NC(=O)[C@@H](Cc2ccc(-c3ccccc3)cc2)NC(=O)[C@H](Cc2ccc(-c3ccccc3)cc2)NC(=O)[C@@H](Cc2cccs2)N1` [Compound 530], the IC50 is > 100 µM.
Regarding `O=C1COc2ccc(cc2)C[C@@H](C(=O)O)NC(=O)[C@@H](Cc2ccc(C(F)(F)F)cc2)NC(=O)[C@H](Cc2ccc(-c3ccccc3)cc2)NC(=O)[C@@H](Cc2cccs2)N1` [Compound 531], the IC50 is > 100 µM.
Under `O=C1COc2ccc(cc2)C[C@@H](C(=O)O)NC(=O)[C@@H](Cc2ccc(F)cc2)NC(=O)[C@H](Cc2ccc(-c3ccccc3)cc2)NC(=O)[C@@H](Cc2cccs2)N1` [Compound 532] stands > 100 µM; under `O=C1COc2ccc(cc2)C[C@@H](C(=O)O)NC(=O)[C@@H](Cc2cccc(C(F)(F)F)c2)NC(=O)[C@H](Cc2ccc(-c3ccccc3)cc2)NC(=O)[C@@H](Cc2cccs2)N1` [Compound 533], > 100 µM; under `O=C1COc2ccc(cc2)C[C@@H](C(=O)O)NC(=O)[C@@H](Cc2ccc(O)cc2)NC(=O)[C@H](Cc2ccc(-c3ccccc3)cc2)NC(=O)[C@@H](Cc2cccs2)N1` [Compound 534], > 100 µM.
Under `COc1ccc(C[C@H]2NC(=O)[C@H](Cc3ccc(-c4ccccc4)cc3)NC(=O)[C@@H](Cc3cccs3)NC(=O)COc3ccc(cc3)C[C@@H](C(=O)O)NC2=O)cc1` [Compound 535] stands > 100 µM.
